US8034572B2, “Receptor for GDNF family ligands” (priority 2006, dated 2011)

Experiments:
[1] = target: T1, GDNF-syndecan-3 complex (UniProt P33671+P39905); test: Chemical cross-linking of ^125I-GDNF to C6 cells and immunoprecipitation with anti-syndecan-3; type: cell-based, rat; conditions: heparin 1 μg/ml; HB-GAM 150-fold molar excess; added with ^125I-GDNF
T1 construct: the rat glioma C6 cell line, which expresses syndecan-3; endogenous in cells; host or cells: rat glioma C6 cells (syndecan-3); GDNF purchased from PeproTech or R&D Systems and iodinated
T1 sequence (P33671 45-442, one chain of several): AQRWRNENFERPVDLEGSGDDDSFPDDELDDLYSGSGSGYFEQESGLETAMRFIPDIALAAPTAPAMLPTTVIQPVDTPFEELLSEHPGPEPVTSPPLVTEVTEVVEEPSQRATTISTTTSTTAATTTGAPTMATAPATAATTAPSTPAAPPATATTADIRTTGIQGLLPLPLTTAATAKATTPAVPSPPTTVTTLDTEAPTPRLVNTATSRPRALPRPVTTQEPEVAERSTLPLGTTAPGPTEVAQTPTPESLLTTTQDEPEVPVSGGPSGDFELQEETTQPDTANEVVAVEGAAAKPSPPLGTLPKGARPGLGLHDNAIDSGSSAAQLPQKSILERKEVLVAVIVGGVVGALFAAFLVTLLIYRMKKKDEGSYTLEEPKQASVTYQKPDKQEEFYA
Method: Glioma C6 cells were plated on 6-well plates and grown to 70% confluency. Cells were incubated with 1 nM ^125I-GDNF for 2 hours in binding buffer (Dulbecco's modified Eagle's medium, 0.2% BSA and 15 mM Hepes, pH 7.2) on ice. Unbound ligand was removed by washing three times with ice-cold PBS. The chemical cross-linker ethyl-dimethyl-aminopropyl-carbodimide (EDAC) supplemented with N-hydroxysuccinimide (NHS) (Sigma) was incubated with cells for 20 min at room temperature in PBS. The reaction was quenched with TBS for 15 min and cells were lysed in lysis buffer (TBS, 1% Triton X-100, 1% NP-40, 2 mM EDTA, 1 mM PMSF and Complete protease inhibitor mixture from Roche Molecular Biochemicals). Cell lysates were immunoprecipitated with anti-syndecan-3 antibodies (Nolo et al., 1995) and resolved on 7.5% SDS-PAGE. Autoradiography was performed with BAS1500 (Fuji). For heparinase III or PI-PLC treatment cells were incubated with 10 mU/ml heparinase III or with 1 U/ml PI-PLC, respectively for one hour at 37° C., 5% CO2 before ^125I-GDNF addition.

[2] = target: T2, GDNF (Homo sapiens, UniProt P39905); test: SPR: direct binding of heparin or desulfated heparins to GDNF cuvette; conditions: apparent Kd from equilibrium response, read-out: Kd1
T2 construct: purchased PeproTech, Ltd. or R&D Systems, Inc
T2 sequence (P39905 78-211 limits assumed): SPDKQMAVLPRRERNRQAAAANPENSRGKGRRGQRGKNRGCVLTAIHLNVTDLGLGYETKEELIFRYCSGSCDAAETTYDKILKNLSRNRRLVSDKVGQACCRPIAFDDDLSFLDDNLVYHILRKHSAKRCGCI
Method: (§1) Specifically desulfated heparins (Takano et al., 1998) were used to assess the involvement of different sulfate groups in the GDNF-heparin interaction by following direct binding to GDNF cuvette, or by competing out GDNF binding to the heparin-BSA cuvette. Dissociation constants were determined from direct binding using increasing GDNF concentrations and by fitting the data to R=(Rmax*C)/(Kd+C) for heparin. For desulfated heparins, the best fit was achieved using equation R=(Rmax1*C)/(Kd1+C)+(Rmax2*C)/(Kd2+C), where Kd1 and Kd2 are apparent dissociation constants derived for two heparin sites of different affinities with maximum equilibrium response Rmax1 and Rmax2, respectively.

[3] = target: T2, GDNF; test: SPR: competition of GDNF binding to heparin-BSA cuvette by heparin and desulfated heparins; conditions: competing out GDNF binding to heparin-BSA cuvette
Method: as §1

[4] = coinfusion into rat striatum; cited from earlier work
[5] = target: T2, GDNF; test: Scintillation proximity assay: tritium labeled heparin binding to and displacement from GDNF; conditions: FIG. 11
Description: The scintillation proximity assay (SPA) technology (Amersham) was used to assay the ability of the low molecular weight molecule (namely low molecular weight heparin from Sigma) to displace tritium labeled heparin from GDNF.
Small beads filled with scintillation liquid are covalently linked with anti-mouse antibodies that can capture mouse anti-FLAG-tag antibodies. In turn, GDNF that we produced by ourselves has a FLAG-tag on its N-terminus. Thus, GDNF is in close proximity to the scintillation beads. The tritium labeled high molecular weight heparin (a kind gift from Ulf Lindahl, Sweden) is administered in the surrounding solution. Labeled heparin binds GDNF, which is sitting on scintillation beads and induces light that is detected. […] This assay can be easily adopted to high-throughput format.
To test the ability of small molecules to displace heparin or heparan sulfates from GDNF they are simply mixed at different concentrations with the labeled heparin and the decrease of the signal is monitored. It does positively correlate with the concentration of the cold heparin. We did it in our study with low molecular weight heparin and got IC50 of approximately 10 nM, which correlates with other binding data (FIG. 11).

| Kd [2] [nM] | IC50 [3] [ng/mL] | IC50 [5] [nM] | Substance | effect on ^125I-GDNF binding to syndecan-3 on C6 cells [1] | biodistribution of coinfused GDNF, NRTN or ARTN [4] |
| --- | --- | --- | --- | --- | --- |
| 9.5 | 0.06 |  | heparin | abolished ^125I-GDNF binding to syndecan-3 almost completely | markedly increased their biodistribution |
|  |  | ~10 | low molecular weight heparin |  |  |
